These results are taken from ChEMBL document CHEMBL1154844, “An antimycobacterial cyclodepsipeptide from the entomopathogenic fungus Ophiocordyceps communis BCC 16475” (J Nat Prod, 2010).

Series [1] relates to KB. Kind of series: Cytotoxicity against human KB cells by resazurin microplate assay. In kind it is functional, cell-based.
In series [2] the test system is Mycobacterium tuberculosis. As to the kind of experiment: Antibacterial activity against Mycobacterium tuberculosis H37Ra by Green fluorescent protein microplate assay. Format: functional.
For series [3], the system named is MCF7. Kind of series: Cytotoxicity against human MCF7 cells at 88 uM by resazurin microplate assay. Format: functional, cell-based.
The subject of the next series is Plasmodium falciparum. As to the kind of experiment: Antimalarial activity against Plasmodium falciparum K1. In kind it is functional, organism-based.
The subject of series [4] is NCI-H187. Kind of series: Cytotoxicity against human NCI-H187 cells at 88 uM by resazurin microplate assay. In kind it is functional, cell-based.
The test system of a further series is Pyricularia grisea. Kind of series: Antifungal activity against Magnaporthe grisea. In kind it is functional, organism-based.
Series [5] has as its system Vero. As to the kind of experiment: Cytotoxicity against african green monkey Vero cells at 88 uM by Green fluorescent protein microplate assay. In kind it is cell-based. Particulars: chlorocebus sabaeus.
The test system of a further series is Candida albicans. Kind of series: Antifungal activity against Candida albicans. Format: functional, organism-based.
In the next series the test system is Bipolaris oryzae. Kind of series: Antifungal activity against Cochliobolus miyabeanus. Format: functional.
In series [6] the test system is Monilinia mali (Monilinia mali). As to the kind of experiment: Antifungal activity against Monilinia mali.
For a further series, the system named is Venturia inaequalis. Kind of series: Antifungal activity against Venturia inaequalis. Format: functional.
Series [7] concerns NCI-H187. Kind of series: Cytotoxicity against human NCI-H187 cells at 178 uM by resazurin microplate assay. Format: functional, cell-based.
Series [8] relates to KB. As to the kind of experiment: Cytotoxicity against human KB cells at 178 uM by resazurin microplate assay. Format: functional, cell-based.
In series [9] the test system is MCF7. As to the kind of experiment: Cytotoxicity against human MCF7 cells by resazurin microplate assay. Format: functional, cell-based.
Series [10] deals with Vero. Kind of series: Cytotoxicity against african green monkey Vero cells at 178 uM by Green fluorescent protein microplate assay. Particulars: chlorocebus sabaeus. In kind it is cell-based.

Converted amounts (≈) assume the structure as drawn. The source made the active and inactive calls. The calls are words filed in the database; no cut-off is given here.

Regarding `CCCCCCCCCC1CCCC(=O)N[C@H]([C@@H](C)O)C(=O)N[C@@H](C)C(=O)N[C@@H](C)C(=O)N[C@@H](CCC(N)=O)C(=O)N[C@@H](Cc2ccc(O)cc2)C(=O)N[C@@H](C(C)C)C(=O)O1` (stereo partly specified) [CORDYCOMMUNIN], the IC50 in the series with KB [1] is 45 µM. Also, 15 µM (≈ 12.9 µg/mL) was the least that counted as inhibitory in series [2] (MIC). Moreover, the outcome in the series with MCF7 [3] and in the series on NCI-H187 [4] was inactive. Also, the MIC result with Plasmodium falciparum, in the series with Pyricularia grisea and in the series with Candida albicans was “inactive” each time. In the series on Vero [5], the Activity result is listed as “Not Active”.

`CCCCCCCCCC[C@@H](C)[C@@H]1CC(=O)N[C@H]([C@@H](C)O)C(=O)N[C@@H](C)C(=O)N[C@H](C)C(=O)N[C@@H](CCC(N)=O)C(=O)N[C@H](Cc2ccc(O)cc2)C(=O)N[C@@H](C(C)C)C(=O)O1` [WA 493 A]: the MIC (against Bipolaris oryzae; in series [6]; in the series on Venturia inaequalis) was 1 µg/mL (≈ 1.14 µM) throughout.

As for `CCC[C@H](O)C[C@@H]1Cc2cc(OC)cc(O)c2C(=O)O1`, the IC50 in the series with MCF7 [3] and with MCF7 [9] was 62 µM each time. Also, the result in the series with NCI-H187 [7] and with KB [8] was inactive. Also, in the series with Vero [10], the Activity result is “Not Active”.

For `CCCCCCCCCC[C@@H](C)[C@@H]1CC(=O)N[C@H]([C@@H](C)O)C(=O)N[C@@H](C)C(=O)N[C@H](C)C(=O)N[C@@H](CCC(N)=O)C(=O)N[C@H](Cc2ccc(O)cc2)C(=O)N[C@@H]([C@@H](C)CC)C(=O)O1`, the MIC (against Bipolaris oryzae; in series [6]; against Venturia inaequalis) was 1 µg/mL (≈ 1.13 µM) in each case.

For `CCC[C@H](O)C[C@@H]1Cc2cc(OC)cc(OC)c2C(=O)O1`, the IC50 in the series with KB [1] is 45 µM. For the same compound, the result (in series [2]; with MCF7 [3]; with NCI-H187 [4]; in the series with NCI-H187 [7]; with KB [8]; with MCF7 [9]) was inactive. Besides, the MIC entry with Plasmodium falciparum, in the series with Pyricularia grisea and in the series on Candida albicans was “inactive” each time. Besides, the Activity result in the series on Vero [10] and with Vero [5] was “Not Active” in each case.
